From article PMC5341070, “Small molecule inhibitors block Gas6-inducible TAM activation and tumorigenicity” (Scientific Reports, 2017) come the findings set out here.

Assay in all cases: biochemical
Common to all, as to parameters: KINOMEscan (DiscoverX) competition binding screen of 97 human kinases, percent of control at 10 uM

The target in assay [1] is T1, ABL1(E255K)-phosphorylated (Homo sapiens, UniProt P00519, E255K).
T1 construct: phosphorylated
The method, then: (§1) The KINOMEscan profiling of the inhibitors were performed as per directions by the manufacturer (DiscoverX) against a panel of human protein kinases.

The target of a further assay is T2, ABL1-nonphosphorylated (Homo sapiens, UniProt P00519).
T2 construct: nonphosphorylated
On the procedure: as §1

Another assay concerns the target AURKB (Homo sapiens, UniProt Q96GD4). On the procedure:
as §1

The target of a further assay is BRAF(V600E) (Homo sapiens, UniProt P15056, V600E). The method, then: as §1
The target of the next assay is BTK (Homo sapiens, UniProt Q06187). On the procedure:
as §1

A further assay has as its target CDK3 (Homo sapiens, UniProt Q00526). On the procedure: as §1
For another assay, the target named is EPHA2 (Homo sapiens, UniProt P29317). On the procedure:
as §1

For another assay, the target named is ERBB2 (Homo sapiens, UniProt P04626). On the procedure:
as §1

In another assay the target is T3, ERK1 (Homo sapiens, UniProt P27361).
T3 construct: gene MAPK3
The method, then:
as §1

In the next assay the target is FGFR3 (Homo sapiens, UniProt P22607). On the procedure:
as §1

For the next assay, the target named is GSK3B (Homo sapiens, UniProt P49841). On the procedure:
as §1

The next assay addresses INSR (Homo sapiens, UniProt P06213). The method, then: as §1
For assay [2], the target named is T4, JAK2(JH1domain-catalytic) (Homo sapiens, UniProt O60674).
T4 construct: JH1domain-catalytic
On the procedure:
as §1

For another assay, the target named is KIT(V559D,T670I) (Homo sapiens, UniProt P10721, T670I/V559D). On the procedure: as §1
A further assay concerns the target MKNK2 (Homo sapiens, UniProt Q9HBH9). On the procedure: as §1
A further assay addresses PAK1 (Homo sapiens, UniProt Q13153). The method, then: as §1
The target in the next assay is PDGFRB (Homo sapiens, UniProt P09619). On the procedure: as §1
For the next assay, the target named is PDPK1 (Homo sapiens, UniProt O15530). On the procedure:
as §1

Another assay deals with PIM3 (Homo sapiens, UniProt Q86V86). On the procedure: as §1
Another assay deals with PLK3 (Homo sapiens, UniProt Q9H4B4). The method, then: as §1
The target in a further assay is T5, SNARK (Homo sapiens, UniProt Q9H093).
T5 construct: gene NUAK2
On the procedure:
as §1

For the next assay, the target named is T6, TRKA (Homo sapiens, UniProt P04629).
T6 construct: gene NTRK1
On the procedure:
as §1

In assay [3] the target is T7, TYK2(JH1domain-catalytic) (Homo sapiens, UniProt P29597).
T7 construct: JH1domain-catalytic
On the procedure:
as §1

Where [4] appears, read: binding competition, % of control, read-out: RU-301 %Ctrl @ 10000nM.
[5] abbreviates: read-out: R428 %Ctrl @ 10000nM, binding competition.

Chain of BTK (Q06187 whole entry): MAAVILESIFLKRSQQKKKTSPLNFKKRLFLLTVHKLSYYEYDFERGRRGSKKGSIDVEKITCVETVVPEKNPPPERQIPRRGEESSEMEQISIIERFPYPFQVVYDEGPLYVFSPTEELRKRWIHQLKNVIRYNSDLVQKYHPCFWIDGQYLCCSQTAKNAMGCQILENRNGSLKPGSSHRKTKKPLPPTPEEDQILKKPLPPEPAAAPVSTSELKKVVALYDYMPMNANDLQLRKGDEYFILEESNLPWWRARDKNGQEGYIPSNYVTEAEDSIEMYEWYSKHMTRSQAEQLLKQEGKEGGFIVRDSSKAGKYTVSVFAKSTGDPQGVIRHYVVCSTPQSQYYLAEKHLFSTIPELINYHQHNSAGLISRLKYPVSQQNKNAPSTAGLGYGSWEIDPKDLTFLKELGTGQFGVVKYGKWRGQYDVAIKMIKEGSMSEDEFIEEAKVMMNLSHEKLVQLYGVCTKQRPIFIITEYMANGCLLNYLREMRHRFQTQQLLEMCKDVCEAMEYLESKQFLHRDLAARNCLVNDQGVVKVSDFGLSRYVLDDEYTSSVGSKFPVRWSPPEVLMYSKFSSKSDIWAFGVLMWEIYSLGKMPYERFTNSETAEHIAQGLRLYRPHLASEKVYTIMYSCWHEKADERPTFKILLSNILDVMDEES
Chain of PDGFRB (P09619 whole entry): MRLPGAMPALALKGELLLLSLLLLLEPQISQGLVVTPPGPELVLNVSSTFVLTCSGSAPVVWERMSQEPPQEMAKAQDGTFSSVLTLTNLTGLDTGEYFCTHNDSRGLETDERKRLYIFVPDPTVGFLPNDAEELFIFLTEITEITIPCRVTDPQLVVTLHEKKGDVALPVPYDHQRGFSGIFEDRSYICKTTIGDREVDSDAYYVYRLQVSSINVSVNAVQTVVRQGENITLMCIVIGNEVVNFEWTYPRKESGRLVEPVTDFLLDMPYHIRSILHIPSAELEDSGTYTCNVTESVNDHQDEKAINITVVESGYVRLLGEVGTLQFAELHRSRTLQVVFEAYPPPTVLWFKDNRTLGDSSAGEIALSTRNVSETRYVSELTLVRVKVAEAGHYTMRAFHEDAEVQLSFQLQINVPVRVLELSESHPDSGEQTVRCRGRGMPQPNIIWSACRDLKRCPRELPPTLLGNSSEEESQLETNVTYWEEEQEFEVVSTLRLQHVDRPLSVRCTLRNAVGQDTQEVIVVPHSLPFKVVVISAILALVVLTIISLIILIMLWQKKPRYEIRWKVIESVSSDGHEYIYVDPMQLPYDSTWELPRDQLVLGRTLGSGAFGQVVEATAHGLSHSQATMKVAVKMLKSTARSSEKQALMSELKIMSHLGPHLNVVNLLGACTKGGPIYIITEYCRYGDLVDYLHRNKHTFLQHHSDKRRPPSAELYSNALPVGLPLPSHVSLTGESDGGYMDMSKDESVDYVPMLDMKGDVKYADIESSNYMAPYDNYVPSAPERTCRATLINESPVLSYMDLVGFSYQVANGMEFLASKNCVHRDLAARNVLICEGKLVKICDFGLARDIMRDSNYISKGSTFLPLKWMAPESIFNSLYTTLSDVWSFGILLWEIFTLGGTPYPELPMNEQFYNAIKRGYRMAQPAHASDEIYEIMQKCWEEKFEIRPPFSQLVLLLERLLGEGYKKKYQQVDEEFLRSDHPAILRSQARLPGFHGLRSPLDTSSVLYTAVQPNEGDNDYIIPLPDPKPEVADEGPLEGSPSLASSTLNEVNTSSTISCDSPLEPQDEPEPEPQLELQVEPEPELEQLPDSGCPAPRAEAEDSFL
Chain of MKNK2 (Q9HBH9 whole entry): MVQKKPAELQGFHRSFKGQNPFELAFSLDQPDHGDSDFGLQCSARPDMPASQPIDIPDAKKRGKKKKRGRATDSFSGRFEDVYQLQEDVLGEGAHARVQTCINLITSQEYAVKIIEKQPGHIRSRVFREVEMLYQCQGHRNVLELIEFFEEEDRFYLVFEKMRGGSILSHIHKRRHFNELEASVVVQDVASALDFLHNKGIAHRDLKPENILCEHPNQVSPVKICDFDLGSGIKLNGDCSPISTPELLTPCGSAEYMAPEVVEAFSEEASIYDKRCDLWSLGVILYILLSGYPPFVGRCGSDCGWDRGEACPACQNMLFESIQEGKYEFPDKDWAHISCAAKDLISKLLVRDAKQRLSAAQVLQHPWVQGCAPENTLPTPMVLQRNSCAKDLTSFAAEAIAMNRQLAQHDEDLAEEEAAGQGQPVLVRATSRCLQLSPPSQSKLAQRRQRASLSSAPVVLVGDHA
Chain of FGFR3 (P22607 whole entry): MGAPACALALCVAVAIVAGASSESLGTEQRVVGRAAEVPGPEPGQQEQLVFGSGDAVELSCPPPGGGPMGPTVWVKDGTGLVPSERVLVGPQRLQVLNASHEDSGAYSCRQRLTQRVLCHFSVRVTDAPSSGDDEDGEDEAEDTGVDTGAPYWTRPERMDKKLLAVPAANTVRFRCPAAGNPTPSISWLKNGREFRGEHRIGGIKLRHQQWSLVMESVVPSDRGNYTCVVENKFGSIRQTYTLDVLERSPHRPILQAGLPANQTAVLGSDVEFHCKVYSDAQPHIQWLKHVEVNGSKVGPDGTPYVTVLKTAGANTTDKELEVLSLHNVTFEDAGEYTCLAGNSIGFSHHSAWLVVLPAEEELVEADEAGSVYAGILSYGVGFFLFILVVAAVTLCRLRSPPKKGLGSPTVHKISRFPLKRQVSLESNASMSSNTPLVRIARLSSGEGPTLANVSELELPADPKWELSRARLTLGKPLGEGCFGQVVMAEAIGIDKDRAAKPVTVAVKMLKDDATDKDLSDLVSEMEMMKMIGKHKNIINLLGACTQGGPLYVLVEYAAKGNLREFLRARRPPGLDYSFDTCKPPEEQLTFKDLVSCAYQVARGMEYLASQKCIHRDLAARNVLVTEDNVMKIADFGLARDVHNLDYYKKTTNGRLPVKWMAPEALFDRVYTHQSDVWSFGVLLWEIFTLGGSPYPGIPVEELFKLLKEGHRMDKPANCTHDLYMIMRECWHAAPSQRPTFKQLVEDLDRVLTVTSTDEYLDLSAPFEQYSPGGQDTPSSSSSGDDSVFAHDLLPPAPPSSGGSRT
T4 sequence (O60674 whole entry): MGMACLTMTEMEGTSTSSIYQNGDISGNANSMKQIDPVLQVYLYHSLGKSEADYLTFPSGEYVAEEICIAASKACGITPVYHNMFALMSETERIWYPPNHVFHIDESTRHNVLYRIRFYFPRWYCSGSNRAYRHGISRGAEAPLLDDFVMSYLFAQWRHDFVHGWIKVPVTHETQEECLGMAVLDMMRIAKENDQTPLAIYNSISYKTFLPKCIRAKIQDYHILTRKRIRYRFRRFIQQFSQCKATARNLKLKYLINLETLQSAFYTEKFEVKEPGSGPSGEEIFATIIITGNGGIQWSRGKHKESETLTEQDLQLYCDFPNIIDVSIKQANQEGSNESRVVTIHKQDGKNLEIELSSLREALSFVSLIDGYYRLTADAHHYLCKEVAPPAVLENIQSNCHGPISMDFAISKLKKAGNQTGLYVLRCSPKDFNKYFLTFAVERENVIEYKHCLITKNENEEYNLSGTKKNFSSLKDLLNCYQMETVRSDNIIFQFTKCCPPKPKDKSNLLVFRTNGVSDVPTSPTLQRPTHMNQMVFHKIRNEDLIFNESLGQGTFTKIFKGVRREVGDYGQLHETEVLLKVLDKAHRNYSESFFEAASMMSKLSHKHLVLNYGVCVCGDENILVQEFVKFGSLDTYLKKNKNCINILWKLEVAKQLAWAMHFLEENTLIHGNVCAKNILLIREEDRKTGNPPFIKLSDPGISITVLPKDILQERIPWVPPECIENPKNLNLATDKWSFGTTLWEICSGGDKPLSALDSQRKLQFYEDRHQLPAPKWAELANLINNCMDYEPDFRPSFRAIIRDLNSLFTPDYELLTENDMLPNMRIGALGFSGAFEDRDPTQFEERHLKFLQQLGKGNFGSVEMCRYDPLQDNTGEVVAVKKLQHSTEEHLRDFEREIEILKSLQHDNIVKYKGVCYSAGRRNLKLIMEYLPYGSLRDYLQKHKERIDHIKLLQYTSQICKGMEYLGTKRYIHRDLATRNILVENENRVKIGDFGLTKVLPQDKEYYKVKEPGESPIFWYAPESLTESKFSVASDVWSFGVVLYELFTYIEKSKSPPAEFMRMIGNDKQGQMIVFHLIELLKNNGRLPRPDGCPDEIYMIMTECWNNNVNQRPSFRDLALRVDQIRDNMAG
Chain of PDPK1 (O15530 whole entry): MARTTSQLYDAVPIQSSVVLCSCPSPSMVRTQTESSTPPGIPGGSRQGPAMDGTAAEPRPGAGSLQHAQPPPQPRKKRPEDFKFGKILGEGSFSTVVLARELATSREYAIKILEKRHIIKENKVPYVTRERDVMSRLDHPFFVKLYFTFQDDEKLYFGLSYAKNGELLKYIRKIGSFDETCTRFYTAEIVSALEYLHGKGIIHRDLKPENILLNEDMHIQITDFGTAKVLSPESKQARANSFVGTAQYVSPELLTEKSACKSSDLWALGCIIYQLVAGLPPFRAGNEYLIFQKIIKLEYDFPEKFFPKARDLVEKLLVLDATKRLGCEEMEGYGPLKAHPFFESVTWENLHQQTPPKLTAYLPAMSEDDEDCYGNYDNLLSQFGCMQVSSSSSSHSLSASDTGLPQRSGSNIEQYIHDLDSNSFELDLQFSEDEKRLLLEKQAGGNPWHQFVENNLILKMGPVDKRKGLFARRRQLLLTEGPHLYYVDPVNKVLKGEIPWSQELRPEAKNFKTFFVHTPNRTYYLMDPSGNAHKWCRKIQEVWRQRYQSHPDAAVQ
Chain of AURKB (Q96GD4 whole entry): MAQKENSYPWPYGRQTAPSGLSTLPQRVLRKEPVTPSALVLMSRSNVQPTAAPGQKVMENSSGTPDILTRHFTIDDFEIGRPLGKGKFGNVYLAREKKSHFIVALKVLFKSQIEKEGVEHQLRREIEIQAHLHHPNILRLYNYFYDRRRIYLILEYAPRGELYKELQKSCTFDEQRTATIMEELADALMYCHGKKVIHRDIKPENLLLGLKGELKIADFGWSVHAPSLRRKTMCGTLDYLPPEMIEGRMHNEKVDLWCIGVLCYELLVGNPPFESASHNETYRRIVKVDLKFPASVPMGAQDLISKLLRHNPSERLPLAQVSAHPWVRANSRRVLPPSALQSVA

On to `Cc1cc(CSc2ccccc2C(=O)NCCNc2ccc(C(F)(F)F)cc2[N+](=O)[O-])on1` [RU-301], for which the remaining binding at 10 µM in assay [1] (setting [4]) stood at 94%; at ABL1-nonphosphorylated (setting [4]) it was 100%; at AURKB (setting [4]) it was 73%; on BRAF(V600E) (setting [4]), 94%; on BTK (setting [4]), 100%; on CDK3 (setting [4]) it was 93%. The remaining binding at 10 µM at EPHA2 (setting [4]) amounted to 96%; on ERBB2 (setting [4]), 94%; on ERK1 (setting [4]) it was 100%; on FGFR3 (setting [4]), 91%; on GSK3B (setting [4]), 98%; at INSR (setting [4]), 89%. The remaining binding at 10 µM in assay [2] (setting [4]) came out at 87%; on KIT(V559D,T670I) (setting [4]), 85%; on MKNK2 (setting [4]), 100%; at PAK1 (setting [4]), 97%; at PDGFRB (setting [4]), 91%; on PDPK1 (setting [4]), 99%. Besides, the remaining binding at 10 µM on PIM3 (setting [4]) was found to be 86%; at PLK3 (setting [4]), 91%; at SNARK (setting [4]), 100%; on TRKA (setting [4]), 100%; in [3] (setting [4]), 55%.

`Nc1nc(Nc2ccc3c(c2)CC[C@@H](N2CCCC2)CC3)nn1-c1cc2c(nn1)-c1ccccc1CCC2` [R428]: the percent of control binding at 10 µM in [1] (setting [5]) amounted to 0.25%; on ABL1-nonphosphorylated (setting [5]), 0.25%; on AURKB (setting [5]), 0.45%; on BRAF(V600E) (setting [5]), 70%; on BTK (setting [5]), 31%; at CDK3 (setting [5]), 72%. Further, the percent of control binding at 10 µM on EPHA2 (setting [5]) worked out at 71%; on ERBB2 (setting [5]), 46%; on ERK1 (setting [5]), 100%; at FGFR3 (setting [5]), 30%; at GSK3B (setting [5]) it was 74%; at INSR (setting [5]), 14%. Besides, the percent of control binding at 10 µM in assay [2] (setting [5]) is 0%; at KIT(V559D,T670I) (setting [5]), 0.05%; on MKNK2 (setting [5]), 0%; at PAK1 (setting [5]), 74%; at PDGFRB (setting [5]) it was 0%; on PDPK1 (setting [5]), 34%. For the same compound, the percent of control binding at 10 µM at PIM3 (setting [5]) was determined as 84%; at PLK3 (setting [5]), 29%; on SNARK (setting [5]), 0.65%; on TRKA (setting [5]) it was 3.9%; in assay [3] (setting [5]) it was 17%.
